Reference: article PMC6268972, “Antiproliferative, Antimicrobial and Apoptosis Inducing Effects of Compounds Isolated from Inula viscosa” (Molecules, 2012)
≈ marks a conversion by molar mass, not a printed value. Entries after “also recorded” stand apart in the source; their conditions may differ.

Tests used:
Bacillus cereus [1] = assay: Scanning electron microscopy of Bacillus cereus cells; type: cell-based; conditions: 62.5 µg/mL, 24 h
Experimental: MCF-7 cells were cultured in complete DMEM containing either 15 µg/mL of 3-O-methylquercetin or 3,3′-di-O-methylquercetin and incubated for 48 h in humidified CO2 incubator. Negative control cells were incubated with complete DMEM and positive control cells received complete DMEM containing 40 nM vincristin sulfate. Treated cells were fixed with 3% glutaraldehyde for 1.5 h followed by osmium tetroxide (2% in PBS) for 1 h. After fixation, cells were washed in PBS and sequentially dehydrated using 30%, 70%, and 100% ethanol. Fixed cells were attached to a metal stubs and sputter coated with platinum by using Emitech K550X coating unit (Qourum Technology, West Sussex, UK). The coated specimens were viewed using Inspect F50/FEG scanning electron microscope (FEI, Eindhoven, The Netherlands) at accelerating voltage of 2–5 kV. Bacillus cereus cells treated with 3,3′-di-O-methylquercetin for 24 h were collected by centrifugation and washed with sodium phosphate buffer. Following that, the samples were fixed in 2.5% glutaraldehyde in 0.1 M phosphate buffer, pH 7.3, at 4 °C overnight, and postfixed in 1% osmium tetroxide in the phosphate buffer for 1 h at room temperature. Bacterial cells were dehydrated with sequential ethanol concentrations (30–100%) and coated for the observations under scanning electron microscope.

Salmonella typhimurium = assay: Microtiter plate dilution MIC, S. typhimurium; type: cell-based; conditions: Salmonella enterica, ATCC 14028 / TYPHIMURIUM; ATCC14028, 24 h, 100% inhibition; read-out: Minimum inhibitory concentration (MIC) S.t
Experimental: (§1) The microbial strains used in this study were Escherichia coli (ATCC 10798), Salmonella typhimurium (ATCC14028), Methicillin resistant Staphylococcus aureus (MRSA, Clinical isolate), Bacillus cereus (Toxigenic strain TS), and Candida albicans (ATCC 90028). Bacterial strains were stocked onto nutrient agar slant at 4 °C, and Candida albicans was stocked onto malt agar slant at 4 °C.
(§2) The microtiter plate dilution method was used to determine the MIC (minimum inhibitory concentration) of compounds under study. Sterile 96-well microplates (Nunc) were used for the assay. Stock compounds were dissolved in DMSO so that the final concentrations in micro wells were less than 1% DMSO and solvent controls were run at these concentrations. Positive controls of penicillin G and tetracycline (Oxoid, Hampshire, UK) were prepared at the following concentrations 2, 4, 8, 16, 31, 62.5, 125, and 250 μg/mL. 1% DMSO was used as a solvent control. Compounds were diluted to twice the desired initial test concentration (250 µg/mL) with Muller Hinton broth (MHB) (Oxoid). All wells, except the first were filled with MHB (50 μL). Compounds (100 μL) were added to the first well and serial two-fold dilutions were made down to the desired minimum concentration (2 μg/mL). An over-night culture of bacteria suspended in MHB was adjusted to turbidity equal to 0.5 McFarland standard. The plates were inoculated with bacterial suspension (50 μL/well) and incubated at 37 °C for 24 h. Then the turbidity was measured using micro-plate reader (Biotek) at 620 nm wavelength. The same procedure was used to determine the antifungal activity of compounds against Candida albicans. The medium used was malt extract broth. The yeast cells were suspended in 0.85% saline, with an optical density equivalent to 0.5 McFarland standard, and diluted 1:100 in malt extract broth to obtain the working concentration. After 24 h incubation with each compound, the turbidity was measured at 530 nm wavelength using a spectrophotometer (Biotek). Percentage inhibition for tested microorganisms was calculated using the following formula:
(§3) MIC was determined as the lowest concentration of the compound that causes complete inhibition (100%) of each microorganism.

Escherichia coli = assay: Microtiter plate dilution MIC, E. coli; type: cell-based; conditions: Escherichia coli, ATCC10798; ATCC 10798, 24 h, 100% inhibition; read-out: Minimum inhibitory concentration (MIC) E.c
Experimental: as §1, §2, §3

Vero cells = assay: MTT antiproliferative activity assay, Vero; type: cell-based, African green monkey; conditions: Chlorocebus sabaeus, Vero; MTT, 48 h treatment, average of three replicates; read-out: IC50 Vero
Experimental: (§4) Hep-2 (larynx carcinoma, ATCC: CCL-23), MCF-7 (breast epithelial adenocarcinoma, ATCC: HTB-22), and Vero (African green monkey kidney, ATCC: CCL-81) cell lines were kindly provided by Dr. Mona Hassuneh (Department of Biological Sciences, University of Jordan). Cells were grown in Minimum Essential Medium Eagle (Gibco, Paisley UK) supplemented with 10% heat inactivated fetal bovine serum (Gibco, Paisley UK), 29 μg/mL L-glutamine, and 40 μg/mL gentamicin. Cells were incubated in a humidified atmosphere of 5% CO2 at 37 °C.
(§5) The antiproliferative activity of Inula viscosa compounds was measured using the MTT (3-(4,5-dimethylthiazol-2-yl)-2,5-diphenyltetrazolium bromide) assay (Promega, Madison, WI, USA). The assay detects the reduction of MTT by mitochondrial dehydrogenase to blue formazan product, which reflects the normal function of mitochondria and cell viability. Exponentially growing cells were washed and seeded at 17,000 cells/well for Hep-2 cell line and 11,000 cells/ well for MCF-7 cell line (in 200 μL of growth medium) in 96 well microplates (Nunc, Roskilde, Denmark). After 24 h incubation, a partial monolayer was formed then the media was removed and 200 μL of the medium containing the compound (initially dissolved in DMSO) were added and re-incubated for 48 h. Then 100 μL of the medium were aspirated and 15 μL of the MTT solution were added to the remaining medium (100 μL) in each well. After 4 h contact with the MTT solution, blue crystals were formed. One hundred μL of the stop solution were added and incubated further for 1 h.
(§6) Reduced MTT was assayed at 550 nm using a microplate reader (Biotek, Winooski, VT, USA). Control groups received the same amount of DMSO (0.1%).Untreated cells were used as a negative control while, cells treated with vincristine sulfate were used as a positive control. Eight concentrations (150, 100, 50, 20, 10, 5, 2, and 1 μg/mL) were prepared from each compound and tested against the three cell lines. IC50 values were calculated as the concentrations that show 50% inhibition of proliferation on any tested cell line. Stock solutions of the compounds were dissolved in (DMSO) then diluted with the medium and sterilized using 0.2 μm membrane filters. The toxicity of DMSO was determined and the final dilution of compounds used for treating the cells contained not more than 0.1% (non toxic concentration) DMSO. IC50 values were reported as the average of three replicates. The antiproliferative effect of the tested compounds was determined by comparing the optical density of the treated cells against the optical density of the control (cells treated with media containing 0.1% DMSO).

Bacillus cereus [2] = assay: Microtiter plate dilution MIC, B. cereus; type: cell-based; conditions: Bacillus cereus; Toxigenic strain TS, 24 h, 100% inhibition; read-out: Minimum inhibitory concentration (MIC) B.c
Experimental: as §1, §2, §3

MCF-7 cells = assay: MTT antiproliferative activity assay, MCF-7; type: cell-based, human; conditions: Homo sapiens, MCF7; MTT, 48 h treatment, average of three replicates; read-out: IC50 MCF-7
Experimental: as §4, §5, §6

Hep-2 cells = assay: MTT antiproliferative activity assay, Hep-2; type: cell-based; conditions: Homo sapiens, HEp-2; MTT, 48 h treatment, average of three replicates; read-out: IC50 Hep-2
Experimental: as §4, §5, §6

MIC (Salmonella typhimurium): 125 µg/mL (≈ 378 µM)
MIC (Escherichia coli): > 250 µg/mL
IC50 (MCF-7 cells): 10.1 ± 1.15 µg/mL (≈ 30.6 µM)
SMILES: COc1cc(-c2oc3cc(O)cc(O)c3c(=O)c2OC)ccc1O [3,3′-di-O-Methylquercetin]
Morphological changes of bacterial cells (scanning electron microscopy) (Bacillus cereus [1]): induced damage in bacterial cell walls and cytoplasmic membranes
Morphological changes of bacterial cells (scanning electron microscopy) (Bacillus cereus [1]; listed as 3,3′-di-O-methylquercetin): Damages on both the bacterial cell wall and the cytoplasmic membrane; also recorded: Leakage of intracellular constituents
IC50 (Vero cells): > 150 µg/mL
MIC (Bacillus cereus [2]): 62.5 µg/mL (≈ 189 µM)
IC50 (Hep-2 cells): 28 ± 1.13 µg/mL (≈ 84.8 µM)
